The values below come from ChEMBL document CHEMBL2021844, “The central valine concept provides an entry in a new class of non peptide inhibitors of the p53-MDM2 interaction” (Bioorg Med Chem Lett, 2012).

In one assay the target is T1, Protein Mdm4 (Homo sapiens, UniProt O15151).
T1 sequence (O15151 whole entry): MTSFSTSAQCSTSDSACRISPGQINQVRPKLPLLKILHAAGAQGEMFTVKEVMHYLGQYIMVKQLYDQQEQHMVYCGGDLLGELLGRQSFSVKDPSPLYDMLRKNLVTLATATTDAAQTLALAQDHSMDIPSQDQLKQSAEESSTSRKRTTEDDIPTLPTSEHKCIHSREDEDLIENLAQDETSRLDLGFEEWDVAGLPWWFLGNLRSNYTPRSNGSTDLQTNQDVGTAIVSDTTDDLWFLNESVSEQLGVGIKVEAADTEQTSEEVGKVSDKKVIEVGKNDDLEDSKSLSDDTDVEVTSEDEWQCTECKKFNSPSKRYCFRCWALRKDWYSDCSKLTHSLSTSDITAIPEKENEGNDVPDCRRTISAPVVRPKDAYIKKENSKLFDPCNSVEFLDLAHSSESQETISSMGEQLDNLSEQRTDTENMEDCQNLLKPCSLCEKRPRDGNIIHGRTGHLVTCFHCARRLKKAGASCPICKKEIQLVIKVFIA
Put plainly: Inhibition of p53 derived peptide binding to MDM4 using fluorescent dye Cy5 by TR-FRET assay. In general terms: Time-resolved FRET reads energy transfer from a long-lived donor to a nearby acceptor.

The target of assay [1] is Tumour suppressor p53/oncoprotein Mdm2 (Homo sapiens, UniProt Q00987). Put plainly: Inhibition of p53 (18 to 26)-MDM2 (2 to 188) interaction using fluorescent dye Cy5 by TR-FRET assay. It is filed as protein assay.
Assay [2] has as its system SJSA-1. Put plainly: Ratio of IC50 for human SJSA1 cells expressing p53 to IC50 for human p53 deficient SAOS2 cells. It is filed as functional.
The test system of assay [3] is SJSA-1. Put plainly: Antiproliferative activity against human SJSA1 cells expressing p53. It is filed as functional, cell-based.

Structures are written as SMILES. pIC50: −log10 of the molar value.

Chain of Tumour suppressor p53/oncoprotein Mdm2 (P04637 whole entry): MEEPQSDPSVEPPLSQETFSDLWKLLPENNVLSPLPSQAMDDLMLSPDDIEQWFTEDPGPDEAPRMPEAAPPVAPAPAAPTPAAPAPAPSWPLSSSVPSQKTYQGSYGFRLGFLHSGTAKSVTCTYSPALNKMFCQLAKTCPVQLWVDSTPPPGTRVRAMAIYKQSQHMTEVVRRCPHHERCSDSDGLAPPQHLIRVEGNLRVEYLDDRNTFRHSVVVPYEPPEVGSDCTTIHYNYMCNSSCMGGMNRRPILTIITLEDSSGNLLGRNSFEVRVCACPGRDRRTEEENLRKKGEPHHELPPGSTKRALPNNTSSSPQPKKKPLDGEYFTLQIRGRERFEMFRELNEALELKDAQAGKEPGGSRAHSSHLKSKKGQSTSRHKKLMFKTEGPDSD
Chain of Tumour suppressor p53/oncoprotein Mdm2 (Q00987 whole entry): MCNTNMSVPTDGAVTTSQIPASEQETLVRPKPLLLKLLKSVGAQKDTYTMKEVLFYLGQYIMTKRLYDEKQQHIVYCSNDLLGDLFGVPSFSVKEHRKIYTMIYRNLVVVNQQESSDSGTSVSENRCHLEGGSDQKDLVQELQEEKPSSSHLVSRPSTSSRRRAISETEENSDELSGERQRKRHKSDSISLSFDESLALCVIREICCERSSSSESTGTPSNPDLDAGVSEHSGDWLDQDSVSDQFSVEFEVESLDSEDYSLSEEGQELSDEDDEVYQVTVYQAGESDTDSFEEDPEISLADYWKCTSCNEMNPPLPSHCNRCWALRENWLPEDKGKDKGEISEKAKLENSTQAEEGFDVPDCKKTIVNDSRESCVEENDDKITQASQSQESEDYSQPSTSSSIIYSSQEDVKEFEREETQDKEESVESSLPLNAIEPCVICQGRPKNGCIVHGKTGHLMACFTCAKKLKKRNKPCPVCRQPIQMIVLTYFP

For the compound `CC(C)CCn1cnc(-c2ccccc2)c1-c1c[nH]c2cc(Cl)ccc12`, the figures for the pIC50 (at Protein Mdm4; in assay [1]) were 4.74 and 6.05, respectively.

Turning to `COc1ccc(Cn2c(C)nc(Cc3ccc(N)cc3)c2Cc2ccc(Cl)cc2)cc1`, the pIC50 (in general, the IC50 on a negative log10 scale, so that one unit is a factor of ten) at Protein Mdm4 is 4.15; in assay [1], 5.47.

As for `O=C(NCCN1CCOCC1)c1[nH]c2cc(Cl)ccc2c1-c1c(-c2ccccc2)ncn1Cc1ccc(Cl)cc1`, the negative-log IC50 (pIC50) is 4.72 on Protein Mdm4 and 5.14 in the assay on SJSA-1 [3]. In addition, the “Ratio IC50” value in the assay with SJSA-1 [2] came to 3.

Turning to `Clc1ccc(Cn2cnc(-c3ccccc3)c2-c2c[nH]c3cc(Cl)ccc23)cc1`, the results for the pIC50 (at Protein Mdm4; in assay [1]) were 4.66 and 6.70, respectively.
